Reference: PMC13181795, “Structural Basis for BD1-Preferring 2,4-Disubstituted Pyrimidine BRDT Inhibitors” (Journal of Medicinal Chemistry, 2026)

Test: Metabolic stability in male mouse liver microsomes
Assay type: in vitro ADME

Which “Scaled-up CLint” value does the source give for O=C(O)Cc1ccccc1Nc1c(Cl)cccc1Cl [Diclofenac] here?
The value was 130 mL/min/kg.
